Measurements: the NIST ThermoML archive (doi:10.1021/je7003929)
± gives the expanded uncertainty stated by the source.

Experiment: xn = mol fraction of the nth substance listed
Details: Liquid, Vibrating tube method

c1ccc2sccc2c1 [benzo[b]thiophene] + CCCCCC
Details | mass density [kg/m3]
312.99 K, 1009 kPa, x2 = 0.2588 | 1009 ± 0.5
312.99 K, 2023 kPa, x2 = 0.2588 | 1009.7 ± 0.5
312.99 K, 3016 kPa, x2 = 0.2588 | 1010.5 ± 0.5
312.99 K, 4029 kPa, x2 = 0.2588 | 1011.2 ± 0.5
312.99 K, 5004 kPa, x2 = 0.2588 | 1011.9 ± 0.5
312.99 K, 6021 kPa, x2 = 0.2588 | 1012.6 ± 0.5
312.99 K, 7031 kPa, x2 = 0.2588 | 1013.3 ± 0.5
312.99 K, 8005 kPa, x2 = 0.2588 | 1014 ± 0.5
312.99 K, 9022 kPa, x2 = 0.2588 | 1014.8 ± 0.5
312.99 K, 10016 kPa, x2 = 0.2588 | 1015.4 ± 0.5
312.99 K, 11004 kPa, x2 = 0.2588 | 1016.1 ± 0.5
312.99 K, 12015 kPa, x2 = 0.2588 | 1016.8 ± 0.5
312.99 K, 13015 kPa, x2 = 0.2588 | 1017.5 ± 0.5
312.99 K, 14003 kPa, x2 = 0.2588 | 1018.2 ± 0.5
312.99 K, 15011 kPa, x2 = 0.2588 | 1018.9 ± 0.5
312.99 K, 16003 kPa, x2 = 0.2588 | 1019.5 ± 0.5
312.99 K, 17010 kPa, x2 = 0.2588 | 1020.2 ± 0.5
312.99 K, 18002 kPa, x2 = 0.2588 | 1020.9 ± 0.5
312.99 K, 19029 kPa, x2 = 0.2588 | 1021.5 ± 0.5
312.99 K, 20017 kPa, x2 = 0.2588 | 1022.2 ± 0.5
313 K, 1011 kPa, x2 = 0.0629 | 1112.7 ± 0.5
313 K, 2027 kPa, x2 = 0.0629 | 1113.3 ± 0.5
313 K, 3046 kPa, x2 = 0.0629 | 1113.9 ± 0.5
313 K, 4018 kPa, x2 = 0.0629 | 1114.5 ± 0.5
313 K, 5014 kPa, x2 = 0.0629 | 1115.2 ± 0.5
313 K, 6016 kPa, x2 = 0.0629 | 1115.7 ± 0.5
313 K, 7014 kPa, x2 = 0.0629 | 1116.3 ± 0.5
313 K, 8008 kPa, x2 = 0.0629 | 1116.9 ± 0.5
313 K, 9013 kPa, x2 = 0.0629 | 1117.6 ± 0.5
313 K, 10003 kPa, x2 = 0.0629 | 1118.1 ± 0.5
313 K, 11005 kPa, x2 = 0.0629 | 1118.7 ± 0.5
313 K, 12017 kPa, x2 = 0.0629 | 1119.3 ± 0.5
313 K, 13017 kPa, x2 = 0.0629 | 1119.9 ± 0.5
313 K, 14023 kPa, x2 = 0.0629 | 1120.5 ± 0.5
313 K, 15024 kPa, x2 = 0.0629 | 1121 ± 0.5
313 K, 16016 kPa, x2 = 0.0629 | 1121.6 ± 0.5
313 K, 17014 kPa, x2 = 0.0629 | 1122.3 ± 0.6
313 K, 18019 kPa, x2 = 0.0629 | 1122.8 ± 0.6
313 K, 19014 kPa, x2 = 0.0629 | 1123.4 ± 0.6
313 K, 20000 kPa, x2 = 0.0629 | 1124 ± 0.6
313.11 K, 1023 kPa, x2 = 0.9432 | 669 ± 0.5
313.11 K, 2023 kPa, x2 = 0.9432 | 670 ± 0.5
313.11 K, 3037 kPa, x2 = 0.9432 | 671 ± 0.5
313.11 K, 4019 kPa, x2 = 0.9432 | 672.2 ± 0.5
313.11 K, 5025 kPa, x2 = 0.9432 | 673.3 ± 0.5
313.11 K, 6058 kPa, x2 = 0.9432 | 674.4 ± 0.5
313.11 K, 7008 kPa, x2 = 0.9432 | 675.5 ± 0.5
313.11 K, 8047 kPa, x2 = 0.9432 | 676.6 ± 0.5
313.11 K, 9025 kPa, x2 = 0.9432 | 677.6 ± 0.5
313.11 K, 10040 kPa, x2 = 0.9432 | 678.6 ± 0.5
313.11 K, 11000 kPa, x2 = 0.9432 | 679.6 ± 0.5
313.11 K, 12016 kPa, x2 = 0.9432 | 680.7 ± 0.5
313.11 K, 13019 kPa, x2 = 0.9432 | 681.6 ± 0.5
313.11 K, 14016 kPa, x2 = 0.9432 | 682.6 ± 0.5
313.11 K, 15029 kPa, x2 = 0.9432 | 683.6 ± 0.5
313.11 K, 16024 kPa, x2 = 0.9432 | 684.5 ± 0.5
313.11 K, 17011 kPa, x2 = 0.9432 | 685.5 ± 0.5
313.11 K, 18015 kPa, x2 = 0.9432 | 686.4 ± 0.6
313.11 K, 19046 kPa, x2 = 0.9432 | 687.4 ± 0.6
313.11 K, 20016 kPa, x2 = 0.9432 | 688.2 ± 0.6
313.13 K, 1017 kPa, x2 = 0.7491 | 761.8 ± 0.5
313.13 K, 2027 kPa, x2 = 0.7491 | 762.9 ± 0.5
313.13 K, 3031 kPa, x2 = 0.7491 | 764 ± 0.5
313.13 K, 4039 kPa, x2 = 0.7491 | 764.9 ± 0.5
313.13 K, 5021 kPa, x2 = 0.7491 | 765.9 ± 0.5
313.13 K, 6027 kPa, x2 = 0.7491 | 766.9 ± 0.5
313.13 K, 7021 kPa, x2 = 0.7491 | 767.9 ± 0.5
313.13 K, 8054 kPa, x2 = 0.7491 | 768.9 ± 0.5
313.13 K, 9007 kPa, x2 = 0.7491 | 769.8 ± 0.5
313.13 K, 10018 kPa, x2 = 0.7491 | 770.7 ± 0.5
313.13 K, 11018 kPa, x2 = 0.7491 | 771.6 ± 0.5
313.13 K, 12036 kPa, x2 = 0.7491 | 772.6 ± 0.5
313.13 K, 13021 kPa, x2 = 0.7491 | 773.5 ± 0.5
313.13 K, 14007 kPa, x2 = 0.7491 | 774.3 ± 0.5
313.13 K, 15006 kPa, x2 = 0.7491 | 775.2 ± 0.5
313.13 K, 16012 kPa, x2 = 0.7491 | 776 ± 0.5
313.13 K, 17016 kPa, x2 = 0.7491 | 776.9 ± 0.5
313.13 K, 18000 kPa, x2 = 0.7491 | 777.8 ± 0.5
313.13 K, 19017 kPa, x2 = 0.7491 | 778.6 ± 0.5
313.13 K, 20030 kPa, x2 = 0.7491 | 779.5 ± 0.5
313.15 K, 1025 kPa, x2 = 0.4495 | 910.7 ± 0.4
313.15 K, 2010 kPa, x2 = 0.4495 | 911.5 ± 0.4
313.15 K, 3028 kPa, x2 = 0.4495 | 912.4 ± 0.5
313.15 K, 4011 kPa, x2 = 0.4495 | 913.2 ± 0.5
313.15 K, 5013 kPa, x2 = 0.4495 | 914 ± 0.5
313.15 K, 6021 kPa, x2 = 0.4495 | 914.8 ± 0.5
313.15 K, 7010 kPa, x2 = 0.4495 | 915.6 ± 0.5
313.15 K, 8033 kPa, x2 = 0.4495 | 916.4 ± 0.5
313.15 K, 9029 kPa, x2 = 0.4495 | 917.2 ± 0.5
313.15 K, 10015 kPa, x2 = 0.4495 | 918 ± 0.5
313.15 K, 11018 kPa, x2 = 0.4495 | 918.8 ± 0.5
313.15 K, 12012 kPa, x2 = 0.4495 | 919.5 ± 0.5
313.15 K, 13010 kPa, x2 = 0.4495 | 920.3 ± 0.5
313.15 K, 14022 kPa, x2 = 0.4495 | 921 ± 0.5
313.15 K, 15019 kPa, x2 = 0.4495 | 921.8 ± 0.5
313.15 K, 16008 kPa, x2 = 0.4495 | 922.6 ± 0.5
313.15 K, 17018 kPa, x2 = 0.4495 | 923.3 ± 0.5
313.15 K, 18027 kPa, x2 = 0.4495 | 924.1 ± 0.5
313.15 K, 19006 kPa, x2 = 0.4495 | 924.8 ± 0.5
313.15 K, 20006 kPa, x2 = 0.4495 | 925.5 ± 0.5
322.05 K, 1026 kPa, x2 = 0.4495 | 901.9 ± 0.4
322.05 K, 2020 kPa, x2 = 0.4495 | 902.8 ± 0.4
322.05 K, 3015 kPa, x2 = 0.4495 | 903.7 ± 0.4
322.05 K, 4003 kPa, x2 = 0.4495 | 904.5 ± 0.5
322.05 K, 5014 kPa, x2 = 0.4495 | 905.4 ± 0.5
322.05 K, 6021 kPa, x2 = 0.4495 | 906.3 ± 0.5
322.05 K, 7015 kPa, x2 = 0.4495 | 907.2 ± 0.5
322.05 K, 8009 kPa, x2 = 0.4495 | 908 ± 0.5
322.05 K, 9028 kPa, x2 = 0.4495 | 908.9 ± 0.5
322.05 K, 10013 kPa, x2 = 0.4495 | 909.7 ± 0.5
322.05 K, 11021 kPa, x2 = 0.4495 | 910.5 ± 0.5
322.05 K, 12023 kPa, x2 = 0.4495 | 911.3 ± 0.5
322.05 K, 13008 kPa, x2 = 0.4495 | 912.1 ± 0.5
322.05 K, 14021 kPa, x2 = 0.4495 | 913 ± 0.5
322.05 K, 15012 kPa, x2 = 0.4495 | 913.7 ± 0.5
322.05 K, 16018 kPa, x2 = 0.4495 | 914.5 ± 0.5
322.05 K, 17012 kPa, x2 = 0.4495 | 915.3 ± 0.5
322.05 K, 18012 kPa, x2 = 0.4495 | 916.1 ± 0.5
322.05 K, 19007 kPa, x2 = 0.4495 | 916.9 ± 0.5
322.05 K, 20015 kPa, x2 = 0.4495 | 917.7 ± 0.5
322.89 K, 1017 kPa, x2 = 0.2588 | 1000 ± 0.5
322.89 K, 2023 kPa, x2 = 0.2588 | 1000.8 ± 0.5
322.89 K, 3021 kPa, x2 = 0.2588 | 1001.5 ± 0.5
322.89 K, 4016 kPa, x2 = 0.2588 | 1002.3 ± 0.5
322.89 K, 5026 kPa, x2 = 0.2588 | 1003.1 ± 0.5
322.89 K, 6030 kPa, x2 = 0.2588 | 1003.8 ± 0.5
322.89 K, 7028 kPa, x2 = 0.2588 | 1004.6 ± 0.5
322.89 K, 8018 kPa, x2 = 0.2588 | 1005.3 ± 0.5
322.89 K, 9014 kPa, x2 = 0.2588 | 1006 ± 0.5
322.89 K, 10021 kPa, x2 = 0.2588 | 1006.7 ± 0.5
322.89 K, 11005 kPa, x2 = 0.2588 | 1007.5 ± 0.5
322.89 K, 12022 kPa, x2 = 0.2588 | 1008.2 ± 0.5
322.89 K, 13013 kPa, x2 = 0.2588 | 1008.9 ± 0.5
322.89 K, 14012 kPa, x2 = 0.2588 | 1009.6 ± 0.5
322.89 K, 15017 kPa, x2 = 0.2588 | 1010.3 ± 0.5
322.89 K, 16016 kPa, x2 = 0.2588 | 1011 ± 0.5
322.89 K, 17002 kPa, x2 = 0.2588 | 1011.7 ± 0.5
322.89 K, 18014 kPa, x2 = 0.2588 | 1012.4 ± 0.5
322.89 K, 19024 kPa, x2 = 0.2588 | 1013.1 ± 0.5
322.89 K, 20016 kPa, x2 = 0.2588 | 1013.8 ± 0.5
